US10906915B2, “Substituted pyrazoloazepin-4-ones and their use as phosphodiesterase inhibitors” (LEO Pharma A/S, priority 2016, dated 2021)

What follows are molecules tested against human PDE4D catalytic domain (UniProt no. Q08499) (Homo sapiens (Human), UniProt Q08499) (assay: PDE4 assay (TR-FRET, FAM-cAMP cleavage)). Conditions: human PDE4D catalytic domain; molar concentration giving 50% inhibition of substrate cleavage; read-out: PDE4 IC50 range.
Type: biochemical
Summary of the method: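 PDE4D catalytic domain ([…]) was incubated with unlabelled cAMP plus FAM-cAMP and titrated compound, stopped with binding buffer of metal-ion nanoparticles and Tb donor. AMP generation read by TR-FRET; IC50 as 50% inhibition of cleavage versus controls, reported as nM ranges.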

Sequence of human PDE4D catalytic domain (Q08499 380-740 limits assumed): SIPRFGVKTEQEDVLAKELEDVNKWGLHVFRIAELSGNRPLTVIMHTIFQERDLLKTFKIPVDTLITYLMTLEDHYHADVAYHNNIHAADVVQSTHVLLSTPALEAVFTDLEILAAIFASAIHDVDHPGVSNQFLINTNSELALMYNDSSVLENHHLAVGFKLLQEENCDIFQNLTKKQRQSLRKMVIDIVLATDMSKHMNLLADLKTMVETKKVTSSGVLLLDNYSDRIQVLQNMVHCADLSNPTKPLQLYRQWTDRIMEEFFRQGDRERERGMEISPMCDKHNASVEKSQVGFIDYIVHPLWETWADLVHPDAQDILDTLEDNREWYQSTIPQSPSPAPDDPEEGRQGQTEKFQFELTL

`CCc1nn(C[C@@H](C)COC(=O)c2ccc(OC)c(C)c2)c2c1C(=O)NCC1(CCOCC1)C2` [Example 186, [(2R)-3-(3-ethyl-4-oxo-spiro[6,8-dihydro-5H-pyrazolo[4,3-c]azepine-7,4′-tetrahydropyran]-1-yl)-2-methyl-propyl] 4-methoxy-3-methyl-benzoate] and `CCc1nn(C[C@@H](C)COC(=O)c2ccc(C)c(C)c2)c2c1C(=O)NCC1(CCOCC1)C2` [Example 169, [(2R)-3-(3-ethyl-4-oxo-spiro[6,8-dihydro-5H-pyrazolo[4,3-c]azepine-7,4′-tetrahydropyran]-1-yl)-2-methyl-propyl] 3,4-dimethylbenzoate] cannot be ordered by IC50: less than 100 nM for the first, less than 100 nM for the second.

`CCc1nn(CCCOC(=O)c2ccc(F)c(OC)c2)c2c1C(=O)NCC1(CCOCC1)C2` [Example 65, 3-(3-ethyl-4-oxo-spiro[6,8-dihydro-5H-pyrazolo[4,3-c]azepine-7,4′-tetrahydropyran]-1-yl)propyl 4-fluoro-3-methoxy-benzoate] and `CCc1nn(CCCOC(=O)c2ccc(F)c(C)c2)c2c1C(=O)NCC1(CCOCC1)C2` [Example 35, 3-(3-ethyl-4-oxo-spiro[6,8-dihydro-5H-pyrazolo[4,3-c]azepine-7,4′-tetrahydropyran]-1-yl)propyl 4-fluoro-3-methyl-benzoate] cannot be ordered by IC50: less than 100 nM for the first, less than 100 nM for the second.

`CCc1nn(C[C@@H](C)COC(=O)c2ccc(C(F)(F)F)c(OC)c2)c2c1C(=O)NCC1(CCOCC1)C2` [Example 233, [(2R)-3-(3-ethyl-4-oxo-spiro[6,8-dihydro-5H-pyrazolo[4,3-c]azepine-7,4′-tetrahydropyran]-1-yl)-2-methyl-propyl] 3-methoxy-4-(trifluoromethyl)benzoate] and `CCc1nn(C[C@@H](C)COC(=O)c2ccc(Cl)c(OC)c2)c2c1C(=O)NCC1(CCOCC1)C2` [Example 208, [(2R)-3-(3-ethyl-4-oxo-spiro[6,8-dihydro-5H-pyrazolo[4,3-c]azepine-7,4′-tetrahydropyran]-1-yl)-2-methyl-propyl] 4-chloro-3-methoxy-benzoate] cannot be ordered by IC50: less than 100 nM for the first, less than 100 nM for the second.

`CCc1nn(CCCOC(=O)c2ccc(S(C)(=O)=O)cc2)c2c1C(=O)NCC1(CCOCC1)C2` [Example 98, 3-(3-ethyl-4-oxo-spiro[6,8-dihydro-5H-pyrazolo[4,3-c]azepine-7,4′-tetrahydropyran]-1-yl)propyl 4-methylsulfonylbenzoate] and `CCc1nn(CCCOC(=O)c2ccc(F)cc2)c2c1C(=O)NCC1(CCOCC1)C2` [Example 20, 3-(3-ethyl-4-oxo-spiro[6,8-dihydro-5H-pyrazolo[4,3-c]azepine-7,4′-tetrahydropyran]-1-yl)propyl 4-fluorobenzoate] cannot be ordered by IC50: less than 100 nM for the first, less than 100 nM for the second.

`CCc1nn(C[C@@H](C)COC(=O)c2ccc(C(C)=O)cc2)c2c1C(=O)NCC1(CCOCC1)C2` [Example 180, [(2R)-3-(3-ethyl-4-oxo-spiro[6,8-dihydro-5H-pyrazolo[4,3-c]azepine-7,4′-tetrahydropyran]-1-yl)-2-methyl-propyl] 4-acetylbenzoate] and `CCc1nn(C[C@@H](C)COC(=O)c2cccc(F)c2OC)c2c1C(=O)NCC1(CCOCC1)C2` [Example 192, [(2R)-3-(3-ethyl-4-oxo-spiro[6,8-dihydro-5H-pyrazolo[4,3-c]azepine-7,4′-tetrahydropyran]-1-yl)-2-methyl-propyl] 3-fluoro-2-methoxy-benzoate] cannot be ordered by IC50: less than 100 nM for the first, less than 100 nM for the second.

`CCc1nn(C[C@@H](C)COC(=O)C(CC)CC)c2c1C(=O)NCC1(CCOCC1)C2` [Example 162, [(2R)-3-(3-ethyl-4-oxo-spiro[6,8-dihydro-5H-pyrazolo[4,3-c]azepine-7,4′-tetrahydropyran]-1-yl)-2-methyl-propyl] 2-ethylbutanoate] and `CCc1nn(C[C@@H](C)COC(=O)c2ccc(F)cc2OC)c2c1C(=O)NCC1(CCOCC1)C2` [Example 195, [(2R)-3-(3-ethyl-4-oxo-spiro[6,8-dihydro-5H-pyrazolo[4,3-c]azepine-7,4′-tetrahydropyran]-1-yl)-2-methyl-propyl] 4-fluoro-2-methoxy-benzoate] cannot be ordered by IC50: less than 100 nM for the first, less than 100 nM for the second.

`CCc1nn(CCCOC(=O)c2cc(C(F)(F)F)ccc2F)c2c1C(=O)NCC1(CCOCC1)C2` [Example 112, 3-(3-ethyl-4-oxo-spiro[6,8-dihydro-5H-pyrazolo[4,3-c]azepine-7,4′-tetrahydropyran]-1-yl)propyl 2-fluoro-5-(trifluoromethyl)benzoate] and `CCc1nn(CCCOC(=O)c2ccc(F)c(C(F)(F)F)c2)c2c1C(=O)NCC1(CCOCC1)C2` [Example 111, 3-(3-ethyl-4-oxo-spiro[6,8-dihydro-5H-pyrazolo[4,3-c]azepine-7,4′-tetrahydropyran]-1-yl)propyl 4-fluoro-3-(trifluoromethyl)benzoate] cannot be ordered by IC50: less than 100 nM for the first, less than 100 nM for the second.

`CCc1nn(CCCOC(=O)c2ccc(OC)c(Cl)c2)c2c1C(=O)NCC1(CCOCC1)C2` [Example 86, 3-(3-ethyl-4-oxo-spiro[6,8-dihydro-5H-pyrazolo[4,3-c]azepine-7,4′-tetrahydropyran]-1-yl)propyl 3-chloro-4-methoxy-benzoate] and `CCc1nn(CCCOC(=O)c2ccc(OC)c(C)c2)c2c1C(=O)NCC1(CCOCC1)C2` [Example 58, 3-(3-ethyl-4-oxo-spiro[6,8-dihydro-5H-pyrazolo[4,3-c]azepine-7,4′-tetrahydropyran]-1-yl)propyl 4-methoxy-3-methyl-benzoate] cannot be ordered by IC50: less than 100 nM for the first, less than 100 nM for the second.

Compared with `CCc1nn(CCCOC(=O)CCSC)c2c1C(=O)NCC1(CCOCC1)C2` [Example 13, 3-(3-ethyl-4-oxo-spiro[6,8-dihydro-5H-pyrazolo[4,3-c]azepine-7,4′-tetrahydropyran]-l-yl)propyl 3-methylsulfanylpropanoate], `CCc1nn(CCCOC(=O)c2ccccc2O)c2c1C(=O)NCC1(CCOCC1)C2` [Example 17, 3-(3-ethyl-4-oxo-spiro[6,8-dihydro-5H-pyrazolo[4,3-c]azepine-7,4′-tetrahydropyran]-1-yl)propyl 2-hydroxybenzoate] is lower in IC50: 100 to 500 nM for the first, less than 100 nM for the second.

`CCc1nn(CCCOC(=O)c2cccc(C(=O)N3CCCC3)c2)c2c1C(=O)NCC1(CCOCC1)C2` [Example 155, 3-(3-ethyl-4-oxo-spiro[6,8-dihydro-5H-pyrazolo[4,3-c]azepine-7,4′-tetrahydropyran]-1-yl)propyl 3-(pyrrolidine-1-carbonyl)benzoate] and `CCc1nn(CCCOC(=O)c2cc(F)cc(OC)c2)c2c1C(=O)NCC1(CCOCC1)C2` [Example 63, 3-(3-ethyl-4-oxo-spiro[6,8-dihydro-5H-pyrazolo[4,3-c]azepine-7,4′-tetrahydropyran]-1-yl)propyl 3-fluoro-5-methoxy-benzoate] cannot be ordered by IC50: less than 100 nM for the first, less than 100 nM for the second.

`CCc1nn(CCCOC(=O)c2ccc(Cl)cc2C(F)(F)F)c2c1C(=O)NCC1(CCOCC1)C2` [Example 121, 3-(3-ethyl-4-oxo-spiro[6,8-dihydro-5H-pyrazolo[4,3-c]azepine-7,4′-tetrahydropyran]-1-yl)propyl 4-chloro-2-(trifluoromethyl)benzoate] and `CCc1nn(CCCOC(=O)c2ccc(F)cc2OC)c2c1C(=O)NCC1(CCOCC1)C2` [Example 71, 3-(3-ethyl-4-oxo-spiro[6,8-dihydro-5H-pyrazolo[4,3-c]azepine-7,4′-tetrahydropyran]-1-yl)propyl 4-fluoro-2-methoxy-benzoate] cannot be ordered by IC50: less than 100 nM for the first, less than 100 nM for the second.

With `CCc1nn(CCCOC(=O)c2cc(F)cc(C#N)c2)c2c1C(=O)NCC1(CCOCC1)C2` [Example 53, 3-(3-ethyl-4-oxo-spiro[6,8-dihydro-5H-pyrazolo[4,3-c]azepine-7,4′-tetrahydropyran]-1-yl)propyl 3-cyano-5-fluoro-benzoate] the IC50 was less than 100 nM.

Same assay, conditions: read-out: PDE4 IC50 range

`CCc1nn(CC2(COC(=O)c3ccc(C)cc3)CC2)c2c1C(=O)NCC1(CCOCC1)C2` [Example 351, [1-[(3-ethyl-4-oxo-spiro[6,8-dihydro-5H-pyrazolo[4,3-c]azepine-7,4′-tetrahydropyran]-1-yl)methyl]cyclopropyl]methyl 4-methylbenzoate] and `CCNC(=O)c1ccc(C(=O)OCC(C)(C)Cn2nc(CC)c3c2CC2(CCOCC2)CNC3=O)cc1` [Example 330, [3-(3-ethyl-4-oxo-Spiro[6,8-dihydro-5H-pyrazolo[4,3-c]azepine-7,4′-tetrahydropyran]-1-yl)-2,2-dimethyl-propyl] 4-(ethylcarbamoyl)benzoate] cannot be ordered by IC50: less than 100 nM for the first, less than 100 nM for the second.

`CCc1nn(C[C@@H](C)COC(=O)c2cccc(C(=O)N3CCCCC3)c2)c2c1C(=O)NCC1(CCOCC1)C2` [Example 269, [(2R)-3-(3-ethyl-4-oxo-spiro[6,8-dihydro-5H-pyrazolo[4,3-c]azepine-7,4′-tetrahydropyran]-1-yl)-2-methyl-propyl] 3-(piperidine-1-carbonyl)benzoate] and `CCc1nn(C[C@@H](C)COC(=O)c2cccc(C(=O)N3CCOCC3)c2)c2c1C(=O)NCC1(CCOCC1)C2` [Example 271, [(2R)-3-(3-ethyl-4-oxo-spiro[6,8-dihydro-5H-pyrazolo[4,3-c]azepine-7,4′-tetrahydropyran]-1-yl)-2-methyl-propyl] 3-(morpholine-4-carbonyl)benzoate] cannot be ordered by IC50: less than 100 nM for the first, less than 100 nM for the second.

First: CCc1nn(CCCCOC(=O)c2ccc(S(=O)(=O)CC)cc2)c2c1C(=O)NCC1(CCOCC1)C2 [Example 371, 4-(3-ethyl-4-oxo-spiro[6,8-dihydro-5H-pyrazolo[4,3-c]azepine-7,4′-tetrahydropyran]-1-yl)butyl 4-ethylsulfonylbenzoate]
Second: CCc1nn(CC(C)(C)COC(=O)c2cccc(OC)c2)c2c1C(=O)NCC1(CCOCC1)C2 [Example 289, [3-(3-ethyl-4-oxo-spiro[6,8-dihydro-5H-pyrazolo[4,3-c]azepine-7,4′-tetrahydropyran]-1-yl)-2,2-dimethyl-propyl] 3-methoxybenzoate]
The IC50 of the first is higher: 100 to 500 nM for the first, less than 100 nM for the second. The second is the more potent here.

For `CCc1nn(CC(C)(C)COC(=O)c2ccccc2Cl)c2c1C(=O)NCC1(CCOCC1)C2` [Example 292, [3-(3-ethyl-4-oxo-spiro[6,8-dihydro-5H-pyrazolo[4,3-c]azepine-7,4′-tetrahydropyran]-1-yl)-2,2-dimethyl-propyl] 2-chlorobenzoate], the IC50 was less than 100 nM.
